In patent US7771426B2, “Bone treatment instrument and method” (University Health Network, priority 2004, dated 2010):
Entries after “also recorded” stand apart in the source; their conditions may differ.

Experiments:
MT-1 cells = test: PDT effect on in vitro MT-1 cells (SRB assay); format: cell-based, human
Method: Method: MT-1 cells were grown and maintained in RPMI media containing penicillin and streptomycin with 10% fetal bovine serum at 37 degrees Celsius. Once the cells had reached subconfluence they were resuspended in free RPMI. The cells were harvested using 0.05% trypsin—0.05 mM EDTA solution. Cells were then counted with a hemocytometer and plated at 2×10^5 cells/ml in a 96 well plate. BPD-MA was then added to the individual wells at a concentration of 1 ug/ml or 10 ug/ml. […] Following treatment the cells were allowed to survive for 24 hours following which an SRB assay was performed to establish the number of viable cells remaining. Briefly, cells were fixed in 10% trichloroacetic acid and stained with a […] solution selectively staining viable cells. A spectrophotometer was then used to assess the absorbance of 540 nm light within individual wells of the 96 well plate which was correlated to the number of remaining cells following treatment.

[1] = BPD uptake in the serum and spinal cord (fluorimetry, fluorescent microscopy); format: in vivo, rats (Sprague-Dawley)
Method: Method: BPD-MA was administered to 10 rats (Sprague-Dawley, 150 gm) through a tail vein injection. Animals were then sacrificed using CO2 inhalation overdose at 16 minutes, 3 hrs, 6 hrs and 24 hrs following injection. Control animals without BPD-MA were euthanized in a similar fashion. Serum samples and spinal cord tissue samples were harvested from the animals at the time of euthanasia. A segment of spine was also fixed in 10% formalin for 7 days followed by decalcification for 7 days in 10% formic acid for fluoroscopic microscopic analysis. A control assay determined that BPD-MA fluorescence was not affected by formic acid. BPD-MA concentration within the serum and spinal cord tissue was then determined using fluorimetry. Briefly, the samples were solubilized and the samples were tested with excitation and emission spectra specific to BPD-MA. The fluorescence of the drug within the tissue was correlated to the specific uptake of the drug within the tissue. Fluorescent microscopy was also used to visualize the presence or absence of BPD-MA within the vertebrae and spinal cord at 1 hour, 3 hours and 24 hours.

[2] = system: MT-1 cells, a human breast cancer cell line; test: Effect of PDT in vertebrae and long bones with metastases (area of effect, histology); format: in vivo, mu/mu nude rats
From the text: (§1) Method: Thirty mu/mu nude rats were used in this part of the study. The rats received a left ventricular intracardiac injection with MT-1 cells as described earlier. At day 21 post injection each animal was anesthetized with 2% halothane/air mixture and placed on a custom made radiolucent stereotactic jig in the left lateral decubitus position. Prior to this it was established by histological methods that animals with tumors contained tumor in most vertebral bodies and long bones. Because lesions within the vertebral bodies could not be detected by fine detail radiography, T12 and L4 vertebrae were selected as representative levels for treatment. An 18 g needle was placed on the cortex of the targeted vertebrae or long bone with the use of a mini C-arm image intensifier. A 300 mW diode laser coupled to a 200 um fiber was used to deliver 690 nm light. BPD-MA was administered intravenously at a dose of 2 mg/kg prior to the administration of the light dose. […] Light doses ranged from 25 J to 150 J. Light was delivered at 150 mW for all treatments and the effects of different drug light intervals and different light doses using a fixed drug concentration were evaluated. The animals were examined for paralysis post treatment. The animals were sacrificed using CO2 inhalation. Vertebrae were then harvested and fixed in 10% formalin for 7 days. Micro-CT images were obtained and then the samples were decalcified in 10% formic acid for 7 days. The tissue was then blocked and paraffin embedded and 10 um sections were cut. The sections were analyzed under light microscopy using H&E staining as well as TUNEL and human EGF-r immunohistochemistry. The area of effect as denoted by necrosis and apoptosis was identified and measured using a Nikon slide scanner and Image Pro software.

[3] = system: MT-1luc+ metastatic lesions; test: Targeted bioluminescent lesions, pre and post-PDT bioluminescent imaging; format: in vivo, nude mu/mu rats
Method: Method: Twenty nude mu/mu (Harlan) female rats (4-6 weeks of age) were used in this part of the study. The protocol was in accordance with the Canadian Council on Animal Care prior to initiation. Prior to injection each animal was anesthetized with 2% halothane/air mixture in a sterile environment. Twenty animals were used for injection. The chest was prepared with alcohol and 2×10^6 MT-1luc+ cells, a human breast cancer cell line carrying the luciferase reporter gene, were injected into the left ventricle using a 1 ml syringe with a 26 g needle. Pulsatile blood in the syringe was ensured prior to each injection. The animals were placed back into their cages and fed water and rat chow ad libitum. At day 18 the animals were imaged using the Xenogen IVIS system. To do this 100 mg/kg luciferin was injected into the peritoneal cavity of each animal and each animal was imaged 5 minutes following injection for a 1 to 5 minute image acquisition period. The animals were then imaged on the same custom made stereotactic radiolucent jig using a mini-C-arm image intensifier which allowed correlation of the bioluminescent signal to the vertebrae. FIGS. 1A-C show stereotactic targeting of bioluminescent metastatic lesions using a mini-C-arm image intensifier. FIG. 1A is a bioluminescent overlay image of a nude rat with metastatic lesions on a radio lucent stereotactic jig. FIG. 1B is a fluoroscan image of markers placed along the grid of the stereotactic jig in correlation to the bioluminescent metastases and resulting in localization of the lesion.
The lesions were then targeted and treated with 25 J or 150 J at a 3 hour drug light interval. The animals were then re-imaged with the Xenogen IVIS system 48 hours post treatment in the stereotactic frame. Signal intensity (photons/second/cm^2) at the targeted site before treatment was compared to signal intensity following treatment and compared to lesions not treated using Igor Pro software (Alameda, Calif.). The animals were then sacrificed using CO2 inhalation and the spines and long bones were harvested. Samples were placed in 10% formalin for 7 days and micro-CT images of the vertebrae and long bones were obtained. The vertebrae were examined histologically using H&E staining and immunohistologically with human EGF-r and TUNEL stains as described earlier. ANOVA Bonferroni and two-tailed paired T-test statistical techniques were applied.

[4] = Effect of light dose on the rat spinal cord, spinal nerves and peripheral nerves (hind leg paralysis); format: in vivo, mu/mu nude rats
From the text: as §1

[5] = Treatment groups: deaths of rats; format: in vivo, mu/mu nude rats
[6] = pig, in vivo
Method: In this study, 50 kg pigs were used. The pigs were pre-anesthetized with ketamine/xylazine 20/2 mg/Kg IM for induction. An IV line was established and 0.9% saline solution was run at 5 ml/Kg/hr. Verteporfin was administered through the IV line using an infusion pump. The pigs were intubated and maintained on a ventilator with isofluorane/nitrous oxide inhalant by animal care professionals. The pigs were placed prone on a radiolucent surgical table with appropriate bolsters for support and padding. A sterile prep was made with betadine soap and scrub and prep solution. A small stab incision was made over the lumbothoracic spine of the pig.
Placement into the vertebral body through a transpedicular and parapedicular approach was facilitated by the use of a CT-Carm. The L1 and L2 vertebrae were targeted.
A cannulated exchange sheath was placed over the guide rod and inserted through the incision. The guide rod was then removed, and a fiber optic cable sheath was then inserted down the cannula of the exchange sheath. […] The cannulated bone screw assembly was pushed down the cannulated exchange sheath. […]
Detector and diffusing fibers were placed in the same transverse plane. The diffusing fiber was moved incrementally with respect to the detector fiber and differences in power were measured at five different distances from the detector source using a computer aided photomultiplier tube. […]

[7] = system: orthotopic chondrosarcoma and fibrosarcoma tumor models; settings: 4 weeks post treatment; 15 minute and 3 hour drug light interval; cited from earlier work
[8] = 25 J, drug-light interval 3 hrs
[9] = 50 J, drug-light interval 3 hrs
[10] = 75 J, drug-light interval 0.75 hrs
[11] = 75 J, drug-light interval 3 hrs
[12] = 100 J, drug-light interval 3 hrs
[13] = 150 J, drug-light interval 3 hrs

Substance: benzoporphyrin derivative monoacid ring A [BPD-MA]
- Mean (absorbance), SRB assay (MT-1 cells; Group 1: drug 1 ug/ml, light 200 J/cm^2, 690 nm, 8 hour incubation): .2923
- Mean (absorbance), SRB assay (MT-1 cells; Group 2: drug 1 ug/ml, light 25 J/cm^2): .1946
- Mean (absorbance), SRB assay (MT-1 cells; Group 3: drug 10 ug/ml, light 200 J/cm^2): .2558
- Mean (absorbance), SRB assay (MT-1 cells; Group 4: drug 10 ug/ml, light 25 J/cm^2): .2049
- Mean (absorbance), SRB assay (MT-1 cells; Group 7: drug 1 ug/ml, no light): 1.2392
- difference in absorbance versus untreated wells (MT-1 cells; drug only): No significant difference
- difference in absorbance versus untreated wells (MT-1 cells; wells treated with light and drug): significant difference
- BPD-MA fluorescence in bone marrow ([1]; 1 hour): contained signal
- BPD-MA fluorescence in spinal cord ([1]; 1 hour): no drug being present
- BPD-MA fluorescence in bone marrow ([1]; 3 hours): intense signal
- BPD-MA fluorescence in spinal cord ([1]; 3 hours): intense signal
- fluorescence of the drug within the spinal cord and vertebrae ([1]; 24 hours): returned to baseline levels
- serum drug concentration ([1]; after 3 hours): began to decline
- serum drug concentration ([1]; by 24 hours post injection): returned to baseline
- uptake of BPD-MA in spinal cord ([1]; drug uptake studies (fluorimetry)): minimal uptake
- delay of uptake into the spinal cord ([1]; fluorescence microscopy): greater than 1 hour
- serum drug concentration ([1]; over 15 minutes post tail vein injection): rapid increase
- Antero-Posterior dimension of effect [2, 8]: 2.62 mm
- Rostral-Caudal dimension of effect [2, 8]: 4.59 mm
- Area of effect ([2]; 25 J, drug-light interval 3 hrs, 2 mg/kg i.v.): 8.435 mm^2
- Antero-Posterior dimension of effect [2, 9]: 3.89 mm
- Area of effect [2, 9]: 15.04 mm^2
- Rostral-Caudal dimension of effect [2, 9]: 5.66 mm
- Antero-Posterior dimension of effect [2, 10]: 5.05 mm
- Area of effect [2, 10]: 82.47 mm^2
- Rostral-Caudal dimension of effect [2, 10]: 17.47 mm
- Antero-Posterior dimension of effect [2, 11]: 5.09 mm
- Area of effect [2, 11]: 52.38 mm^2
- Rostral-Caudal dimension of effect [2, 11]: 11.67 mm
- Antero-Posterior dimension of effect [2, 12]: 5.05 mm
- Area of effect [2, 12]: 45.49 mm^2
- Rostral-Caudal dimension of effect [2, 12]: 13.8 mm
- Antero-Posterior dimension of effect [2, 13]: 5.78 mm
- Area of effect [2, 13]: 80.53 mm^2
- Rostral-Caudal dimension of effect [2, 13]: 13.05 mm
- diameter of largest area of effect ([2]; 200 um fiber optical cable, treatment time 16 minutes): 2.2 cm
- ablation of tumor tissue ([2]; 24 hour drug light interval): No effect; also recorded: no difference
- effect on tumor, bone, bone marrow or spinal cord ([2]; drug only, no light): did not affect
- decrease in tumor growth compared to control lesions ([3]; 25 J, 3 hour drug light interval): 66%
- PostRx/PreRx, Rx Area [3, 8]: 1.25
- reduction of bioluminescent signal from the targeted site ([3]; 150 J, 3 hour drug light interval, 48 hours following treatment): 87%
- decrease in tumor growth compared to control lesions ([3]; 150 J, 3 hour drug light interval, one treatment): 99.8%
- PostRx/PreRx, Rx Area ([3]; 150 J, drug light interval 3 hrs): 0.139
- Mean Count Rx Area ([3]; Post-PDT (48 hours), 25 J, drug-light interval 3 hrs): 2.33 × 10^4
- Mean Count Rx Area ([3]; Post-PDT (48 hours), 150 J, drug light interval 3 hrs): 1.42 × 10^3
- Mean Count Rx Area ([3]; Pre-PDT, 25 J, drug-light interval 3 hrs (n = 2)): 1.86 × 10^4
- Mean Count Rx Area ([3]; Pre-PDT, 150 J, drug light interval 3 hrs (n = 5)): 1.02 × 10^4
- Hind Leg Paralysis (animals) ([4]; 25 J, T12, drug light interval 3 hr, N = 5): 0
- Hind Leg Paralysis (animals) ([4]; 50 J, T12, drug light interval 3 hr, N = 5): 2 unilateral
- Hind Leg Paralysis (animals) ([4]; 75 J, T12, drug light interval 3 hr, N = 4): 1 bilateral
- Hind Leg Paralysis (animals) ([4]; 100 J, T12, drug light interval 3 hr, N = 3): 2 unilateral
- Hind Leg Paralysis (animals) ([4]; 125 J, T12, drug light interval 3 hr, N = 2): 1 bilateral
- Hind Leg Paralysis (animals) ([4]; 150 J, T12, drug light interval 0.25 hr, N = 4): 4
- Hind Leg Paralysis (animals) ([4]; 150 J, T12, drug light interval 3 hr, N = 4): 3 bilateral
- Death During PDT (animals) ([5]; MT-1 group, n = 20): 0
- Death Following Verteporfin Injection (animals) ([5]; MT-1 group, n = 20): 1
- Death During PDT (animals) ([5]; MT-1luc+ group, n = 30): 1
- Death Following Verteporfin Injection (animals) ([5]; MT-1luc+ group, n = 30): 2
- complications attributed to the PDT [6]: no hindleg paralysis
- lesions completely ablated [7]: 33%
